Results reported in US7109243B2 (IRM LLC, priority 2003, dated 2006).
pKi: −log10 of the molar value.

What was measured:
Cathepsin S = Cathepsin S (Homo sapiens, UniProt P25774); test: Cathepsin S inhibition assay (fluorogenic peptide substrate); type: biochemical; details: Table II, compounds of Formula I; read-out: Ki Cat. S
Experimental: “Inhibition constant”, Ki, is the dissociation constant of the enzyme-inhibitor complex, or the reciprocal of the binding affinity of the inhibitor to the enzyme. […] The inhibited rates are then fit by nonlinear regression to the following equation: […]
The assumption being made for the classical inhibition described above is that the free inhibitor concentration is equal to the total inhibitor concentration.
Kinetic measurements are performed in a total reaction volume of 30 μl in 384-well microtiter plates. […] The reactions are initiated by adding the substrate, acetyl-histidine-proline-valine-lysine-amino carbamoyl coumarin, to a final concentration of 50 μM. The rate of substrate hydrolysis is measured by monitoring the increase in fluorescence at an excitation wavelength of 380 nm and an emission wavelength of 450 nm that results from cleavage of the aniline bond in the substrate by the enzyme.

Cathepsin K = molecular target: T1, Cathepsin K (Homo sapiens, UniProt P43235); test: Cathepsin K inhibition assay (fluorogenic peptide substrate); selectivity ratio vs cathepsin S; type: biochemical; details: ratio of cathepsin K inhibition constant to cathepsin S inhibition constant; Table II
T1 sequence (P43235 115-329): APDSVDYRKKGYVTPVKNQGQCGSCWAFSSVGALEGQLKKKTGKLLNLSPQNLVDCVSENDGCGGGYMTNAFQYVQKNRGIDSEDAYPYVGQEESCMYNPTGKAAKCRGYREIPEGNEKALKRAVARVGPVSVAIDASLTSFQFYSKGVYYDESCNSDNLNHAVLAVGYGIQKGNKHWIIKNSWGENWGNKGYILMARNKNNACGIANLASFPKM
Experimental: The optimal substrate for cathepsin K, acetyl-lysine-histidine-proline-lysine-amino carbamoyl coumarin, was identified from screening a combinatorial library of fluorogenic peptide substrates (Harris, J. L., B. J. Backes, et al., Proc Natl Acad Sci USA 2000, 97(14), 7754-9). Kinetic measurements are performed in a total reaction volume of 30 μl in 384-well microtiter plates. […] The reactions are initiated by adding the substrate, acetyl-lysine-histidine-proline-lysine-amino carbamoyl coumarin, to a final concentration of 40 μM. The rate of substrate hydrolysis is measured by monitoring the increase in fluorescence at an excitation wavelength of 380 nm and an emission wavelength of 450 nm that results from cleavage of the aniline bond in the substrate by the enzyme. The apparent inhibition constants for the compounds are determined from the enzyme progress curves ([…]. Elrod, et al., Anal Biochem 2000, 286(1), 45-50) and are then used to calculate the inhibition constants for competitive inhibitors. Selectivity for cathepsin S in the presence of cathepsin isozymes was determined by the ratio of the cathepsin isozyme inhibition constant of a compound of the present invention to the cathepsin S inhibition constant of the same compound.

Cathepsin S, sequence (P25774 115-331, species assumed): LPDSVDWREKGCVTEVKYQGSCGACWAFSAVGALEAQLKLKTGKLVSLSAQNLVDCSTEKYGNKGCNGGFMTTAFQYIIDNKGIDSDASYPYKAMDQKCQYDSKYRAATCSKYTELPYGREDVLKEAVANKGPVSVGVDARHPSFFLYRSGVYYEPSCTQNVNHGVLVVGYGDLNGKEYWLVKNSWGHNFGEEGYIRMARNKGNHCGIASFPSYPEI

Row | pKi (Cathepsin S) | Selectivity for Cat. S over Cat. K (Cathepsin K) | Compound
1 | > 7.00 | +++ (+++, >1000) | COc1ccc(NCCNC(=O)[C@H](Cc2ccc(F)c(F)c2)NC(=O)c2cccc(C)c2)cc1 [Compound 237, (S)-N-{2-(3,4-Difluoro-phenyl)-1-[2-(4-methoxy-phenylamino)-ethylcarbamoyl]-ethyl}-3-methyl-benzamide]
2 | > 7.00 | ++ (++, >100) | COc1ccc(NCCNC(=O)[C@H](CC2CCCCC2)NC(=O)c2cc(C)c(OCc3ccccc3)c(C)c2)cc1 [Compound 110, (S)-4-Benzyloxy-N-{2-cyclohexyl-1-[2-(4-methoxy-phenylamino)-ethylcarbamoyl]-ethyl}-3,5-dimethyl-benzamide]
3 | > 7.00 | ++ (++, >100) | COc1ccc(NCCNC(=O)[C@H](CC2CCCCC2)NC(=O)c2ccc(C)c(Br)c2)cc1 [Compound 112, (S)-3-Bromo-N-{2-cyclohexyl-1-[2-(4-methoxy-phenylamino)-ethylcarbamoyl]-ethyl}-4-methyl-benzamide]
4 | > 7.00 | + (+, >10) | COc1ccc(NCCNC(=O)[C@H](CC2CCCCC2)NC(=O)c2cccc(N(C)C)c2)cc1 [Compound 119, (S)-N-{2-Cyclohexyl-1-[2-(4-methoxy-phenylamino)-ethylcarbamoyl]-ethyl}-3-dimethylamino-benzamide]
5 | > 6.00 | ++ (++, >100) | COc1ccc(NCCNC(=O)[C@H](Cc2ccc(-c3ccc(OC)c(OC)c3)cc2)NC(=O)c2cccc(C)c2)cc1 [Compound 281, (S)-N-{2-(3′,4′-Dimethoxy-biphenyl-4-yl)-1-[2-(4-methoxy-phenylamino)-ethylcarbamoyl]-ethyl}-3-methyl-benzamide]
6 | > 7.00 | +++ (+++, >1000) | COc1ccc(NCCNC(=O)[C@H](CCC2CCCCC2)NC(=O)[C@@H](C)c2ccccc2)cc1 [Compound 128]
7 | > 6.00 | ++ (++, >100) | COc1ccc(NCCNC(=O)C(NC(=O)c2cccc(C)c2)c2ccc(OC)cc2)cc1 (stereo not drawn) [Compound 211, N-{(4-Methoxy-phenyl)-[2-(4-methoxy-phenylamino)-ethylcarbamoyl]-methyl}-3-methyl-benzamide]
8 | > 7.00 | +++ (+++, >1000) | COc1ccc(NCCNC(=O)[C@H](CC2CCCCC2)NC(=O)c2cccc(F)c2C)cc1 [Compound 147, (S)-N-{2-Cyclohexyl-1-[2-(4-methoxy-phenylamino)-ethylcarbamoyl]-ethyl}-3-fluoro-2-methyl-benzamide]
9 | > 7.00 | + (+, >10) | O=C(N[C@@H](CC1CCCCC1)C(=O)NCCNc1ccc(OC(F)(F)F)cc1)c1ccc(-n2cncn2)cc1 [Compound 221, (S)-N-{2-Cyclohexyl-1-[2-(4-trifluoromethoxy-phenylamino)-ethylcarbamoyl]-ethyl}-4-[1,2,4]triazol-1-yl-benzamide]
10 | > 7.00 | ++ (++, >100) | O=C(Cc1cccc(F)c1)N[C@@H](CC1CCCCC1)C(=O)NCCNc1ccc(F)cc1 [Compound 260, 3-Cyclohexyl-2-(S)-[2-(3-fluoro-phenyl)-acetylamino]-N-[2-(4-fluoro-phenylamino)-ethyl]-propionamide]
11 | > 6.00 | ++ (++, >100) | COc1ccc(NCCNC(=O)[C@H](CCC2CCCCC2)NC(=O)c2cc3cc(F)ccc3[nH]2)cc1 [Compound 132, (S)-5-Fluoro-1H-indole-2-carboxylic acid {3-cyclohexyl-1-[2-(4-methoxy-phenylamino)-ethylcarbamoyl]-propyl}-amide]
12 | > 6.00 | ++ (++, >100) | COc1ccc(NCCNC(=O)C(NC(=O)c2cccc(C)c2)c2cccc(Cl)c2Cl)cc1 (stereo not drawn) [Compound 223, N-{(2,3-Dichloro-phenyl)-[2-(4-methoxy-phenylamino)-ethylcarbamoyl]-methyl}-3-methyl-benzamide]
13 | > 7.00 | ++ (++, >100) | CC(C(=O)NC(CC1CCCCC1)C(=O)NCCNc1ccc(F)cc1)c1ccc(F)cc1 (mixture of isomers) [Compound 320, N-(S)-{2-cyclohexyl-1-[2-(4-fluoro-phenylamino)-ethylcarbamoyl]-ethyl}-2-(R,S)-(4-fluoro-phenyl)-propionamide]

Continued, compound first:

Row | Compound | pKi (Cathepsin S) | Selectivity for Cat. S over Cat. K (Cathepsin K)
14 | Cc1oc(S(=O)(=O)N2CCOCC2)cc1C(=O)N[C@@H](CC1CCCCC1)C(=O)NCCNc1ccc(OC(F)(F)F)cc1 [Compound 49, 2-Methyl-5-(morpholine-4-sulfonyl)-furan-3carboxylic acid (S)-{2-cyclohexyl-1-[2-(4-trifluoromethoxy-phenylamino)-ethylcarbamoyl]-ethyl}-amide] | > 7.00 | ++ (++, >100)
15 | COc1ccc(NCCNC(=O)[C@H](Cc2ccccc2)NC(=O)c2cc(C)c(OCc3ccccc3)c(C)c2)cc1 [Compound 20, (S)-4-Benzyloxy-N-{1-[2-(4-methoxy-phenylamino)-ethylcarbamoyl]-2-phenyl-ethyl}-3,5-dimethyl-benzamide] | > 6.00 | ++ (++, >100)
16 | O=C(N[C@@H](CC1CCCCC1)C(=O)NCCNc1ccc(OC(F)(F)F)cc1)C1CCCN(c2ncc(Br)cn2)C1 (stereo partly drawn) [Compound 93, 1-(5-Bromo-pyrimidin-2-yl)-piperidine-3-carboxylic acid (S)-{2-cyclohexyl-1-[2-(4-trifluoromethoxy-phenylamino)-ethylcarbamoyl]-ethyl}-amide] | > 6.00 | +++ (+++, >1000)
17 | COc1ccc(NCCNC(=O)[C@H](Cc2ccc(Oc3ccccc3C)cc2)NC(=O)c2cccc(C)c2)cc1 [Compound 66, (S)-N-[1-[2-(4-Methoxy-phenylamino)-ethylcarbamoyl]-2-(4-o-tolyloxy-phenyl)-ethyl]-3-methyl-benzamide] | > 6.00 | ++ (++, >100)
18 | Cc1oc(S(=O)(=O)N2CCCC2)cc1C(=O)N[C@@H](CC1CCCCC1)C(=O)NCCNc1ccc(OC(F)(F)F)cc1 [Compound 40, 2-Methyl-5-(pyrrolidine-1-sulfonyl)-furan-3-carboxylic acid (S)-{2-cyclohexyl-1-[2-(4-trifluoromethoxy-phenylamino)-ethylcarbamoyl]-ethyl}-amide] | > 6.00 | + (+, >10)
19 | COc1ccc(NCCNC(=O)[C@H](Cc2ccccc2)NC(=O)c2ccncc2)cc1 [Compound 64, (S)-N-{1-[2-(4-Methoxy-phenylamino)-ethylcarbamoyl]-2-phenyl-ethyl}-isonicotinamide] | > 5.00 | + (+, >10)
20 | Cc1cc(C)nc(N(C)c2cccc(C(=O)N[C@@H](CC3CCCCC3)C(=O)NCCNc3ccc(OC(F)(F)F)cc3)c2)n1 [Compound 71, N-(S)-{2-cyclohexyl-1-[2-(4-trifluoromethoxy-phenylamino)-ethylcarbamoyl]-ethyl}-3-[(4,6-dimethyl-pyrimidin-2-yl)-methyl-amino]-benzamide] | > 7.00 | ++ (++, >100)
21 | O=C(Cc1ccc(F)cc1Cl)N[C@@H](CC1CCCCC1)C(=O)NCCNc1ccc(F)cc1 [Compound 107, 2-(S)-[2-(2-Chloro-4-fluoro-phenyl)-acetylamino]-3-cyclohexyl-N-[2-(4-fluoro-phenylamino)-ethyl]-propionamide] | > 7.00 | +++ (+++, >1000)
22 | O=C(N[C@@H](CC1CCCCC1)C(=O)NCCNc1ccc(OC(F)(F)F)cc1)c1ccoc1 [Compound 26] | > 7.00 | ++ (++, >100)
23 | O=C(N[C@@H](CC1CCCCC1)C(=O)NCCNc1ccc(OC(F)(F)F)cc1)c1csc(-c2ccccc2)n1 [Compound 54, 2-Phenyl-thiazole-4-carboxylic acid (S)-{2-cyclohexyl-1-[2-(4-trifluoromethoxy-phenylamino)-ethylcarbamoyl]-ethyl}-amide] | > 7.00 | + (+, >10)
24 | O=C(N[C@@H](CC1CCCCC1)C(=O)NCCNc1ccc(OC(F)(F)F)cc1)C1CN(Cc2ccccc2)CCO1 (stereo partly drawn) [Compound 32, 4-Benzyl-morpholine-2-carboxylic acid (S)-{2-cyclohexyl-1-[2-(4-trifluoromethoxy-phenylamino)-ethylcarbamoyl]-ethyl}-amide] | > 7.00 | + (+, >10)
